{"source": "patent US20110263539A1", "about": "“SHIP 1 MODULATOR COMPOUNDS” (THE UNIVERSITY OF BRITISH COLUMBIA, priority 2006, published 2011)", "key": {"[1]": {"system": "luciferase expressing OPM2 cells", "assay": "In vivo Multiple Myeloma (MM) assay (Assay 8)", "set-up": "species or system Mice", "details": "50 mg/kg every 3 days, subcutaneous oil depot", "experimental": "Assay 8) In vivo Multiple Myeloma (MM) assay. Mice were inoculated with at two sites each with 3×10^6 luciferase expressing OPM2 cells suspended in 50 μL of growth medium and 50 μL of Matrigel basement membrane matrix (Becton Dickenson; Bedford, Mass.). Tumors were injected subcutaneously in the upper and lower flanks of the mice and allowed to establish for 2 weeks. After 2 weeks, a test compound or control vehicle was administered in a subcutaneous oil depot at a dose of 50 mg/kg every 3 days.\nTumors were measured using bioluminescence imaging on the Xenogen IVIS 200. Mice received intra-peritoneal injections of 200 μL of D-luciferin at 3.75 mg/mL in sterile PBS. Mice were then anesthetized with isofluorane and imaged 15 minutes post-injection of luciferin. Quantification of tumor size was performed using the Living Image™ software.\nMM Xenograft murine model. Mice were inoculated with at two sites each with 3×10^6 luciferase expressing OPM2 cells suspended in 50 μL of growth medium and 50 μL of Matrigel basement membrane matrix (Becton Dickenson; Bedford, Mass.). Tumors were injected subcutaneously in the upper and lower flanks of the mice and allowed to establish for 2 weeks. […]\nTumors were measured using bioluminescence imaging on the Xenogen IVIS 200. […] Quantification of tumor size was performed using the Living Image™ software. […]"}, "[2]": {"system": "neutrophil myeloperoxidase (MPO) activity", "assay": "Mouse acute cutaneous anaphylaxis model (Assay 5)", "assay_type": "in vivo, CD1 mice", "experimental": "Assay 5) Mouse acute cutaneous anaphylaxis model. 6-8 week old CD1 mice\n(§1) (University of British Columbia Animal Facility, Vancouver, BC) were sensitized to the hapten DNP by cutaneous application of 25 μL of 0.5% dinitrofluorobenzene (DNFB) (Sigma, Oakville, Ont) in acetone to the shaved abdomen of mice for two consecutive days. 24 hrs later, test substances (dissolved in 10 μL of 1:2 DMSO:MeOH) were painted on the right ear while the left ear received vehicle control. 30 min after drug application, DNFB was applied to both ears to induce mast cell degranulation. A 6 mm punch was taken from the ear and immediately frozen on dry ice for subsequent determination of neutrophil myeloperoxidase (MPO) activity.\nas §1, with “Mouse acute cutaneous anaphylaxis model. 6-8 week old CD1 mice (University” for “(University”, “activity. Compound 100's ability to inhibit cutaneous anaphylaxis was assessed.” for “activity.”\nAnaphylactic or allergic responses are mediated by allergen-induced degranulation of pre-sensitized mast cells. The mouse ear edema/cutaneous anaphylaxis model involves pre-sensitization of mice with the haptenizing agent dinitrofluorobenzene (DNFB). One week later the allergic reaction is elicited by painting DNFB onto the ears of the mice. The efficacy of potential anti-inflammatory compounds is tested by topical application of the test substance to one ear and comparing the resulting ear edema or inflammation of the two ears."}}}
{"smiles": "Cc1cc(O)cc2c1[C@]1(C)CCC3C(C)(C)CCC[C@]3(C)[C@H]1C2", "note": "(stereo partly drawn) [Compound 100]", "values": [{"measurement": "Assay Number 8: In vivo Multiple Myeloma (MM) assay", "setting": "[1]", "result": "+"}, {"measurement": "Assay Number 5: Mouse acute cutaneous anaphylaxis model", "setting": "[2]; topical on ear, DNFB", "result": "+"}, {"measurement": "allergen (DNFB)-induced inflammation", "setting": "[2]; topically applied vs vehicle control-treated ear", "result": "dramatically inhibited"}]}
